# From patent publication US11208412B2 (DAEGU-GYEONGBUK MEDICAL INNOVATION FOUNDATION, priority 2017, dated 2021)
# Legend:
# Test in all cases: Kinase selectivity, DiscoverX scanMAX Kinase assay panel (% control)
# Type in all cases: binding
# [1] = target: T1, kinases of the scanMAX Kinase assay panel (Homo sapiens, UniProt Q9H2K8); conditions: kinase TAOK3; 1 uM in DMSO
# T1 construct: purchased DiscoverX Co. (contract measurement) scanMAX Kinase assay panel
# T1 sequence (Q9H2K8 1-898): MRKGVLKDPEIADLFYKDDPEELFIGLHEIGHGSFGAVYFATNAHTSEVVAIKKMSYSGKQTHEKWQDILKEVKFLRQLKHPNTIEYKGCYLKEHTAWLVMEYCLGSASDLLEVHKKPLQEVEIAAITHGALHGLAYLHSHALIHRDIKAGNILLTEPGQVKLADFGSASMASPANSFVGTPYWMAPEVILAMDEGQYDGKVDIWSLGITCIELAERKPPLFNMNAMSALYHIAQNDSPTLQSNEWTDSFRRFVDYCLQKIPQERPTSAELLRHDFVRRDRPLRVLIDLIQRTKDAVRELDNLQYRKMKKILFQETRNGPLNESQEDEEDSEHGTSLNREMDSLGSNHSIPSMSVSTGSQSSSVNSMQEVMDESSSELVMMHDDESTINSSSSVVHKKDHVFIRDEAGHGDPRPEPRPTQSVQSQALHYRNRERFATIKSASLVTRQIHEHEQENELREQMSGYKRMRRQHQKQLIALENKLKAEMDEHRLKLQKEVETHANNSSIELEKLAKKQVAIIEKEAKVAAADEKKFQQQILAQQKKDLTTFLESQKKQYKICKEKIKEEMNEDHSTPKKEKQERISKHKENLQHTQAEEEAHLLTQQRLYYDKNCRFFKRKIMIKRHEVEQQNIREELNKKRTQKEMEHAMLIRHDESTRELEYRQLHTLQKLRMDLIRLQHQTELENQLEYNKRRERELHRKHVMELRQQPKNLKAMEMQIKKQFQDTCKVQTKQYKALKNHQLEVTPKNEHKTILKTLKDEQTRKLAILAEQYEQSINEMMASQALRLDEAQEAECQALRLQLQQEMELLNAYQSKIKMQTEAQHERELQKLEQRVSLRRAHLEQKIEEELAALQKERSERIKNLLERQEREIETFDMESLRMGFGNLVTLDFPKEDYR
# Method in brief: (§1)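 Percent of control computed as (compound − positive control)/(negative control − positive control) × 100, DMSO defining 100% and positive control 0%. Each panel kinase exposed to 1 uM compound; values under 35% taken to mean the compound acts on that kinase.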
# [2] = target: T2, kinases of the scanMAX Kinase assay panel (Homo sapiens, UniProt P31749); conditions: AKT1; 1 uM
# T2 construct: purchased DiscoverX Co. (contract measurement) scanMAX Kinase assay panel
# T2 sequence (P31749 whole entry): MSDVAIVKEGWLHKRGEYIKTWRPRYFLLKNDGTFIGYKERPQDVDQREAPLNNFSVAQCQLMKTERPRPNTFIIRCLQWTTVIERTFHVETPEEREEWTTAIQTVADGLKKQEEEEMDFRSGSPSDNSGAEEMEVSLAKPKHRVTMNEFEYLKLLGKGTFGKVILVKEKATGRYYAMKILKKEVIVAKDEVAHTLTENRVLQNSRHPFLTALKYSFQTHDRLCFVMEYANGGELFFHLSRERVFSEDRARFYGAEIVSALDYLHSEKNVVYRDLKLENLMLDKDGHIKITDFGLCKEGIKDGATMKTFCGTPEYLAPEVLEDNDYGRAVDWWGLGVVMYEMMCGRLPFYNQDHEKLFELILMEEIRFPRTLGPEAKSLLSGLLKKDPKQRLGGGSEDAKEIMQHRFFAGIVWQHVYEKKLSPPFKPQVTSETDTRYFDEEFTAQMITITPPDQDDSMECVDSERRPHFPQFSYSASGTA
# Method in brief: as §1
# [3] = target: T3, kinases of the scanMAX Kinase assay panel (Homo sapiens, UniProt Q16816); conditions: PHKG1; 1 uM
# T3 construct: purchased DiscoverX Co. (contract measurement) scanMAX Kinase assay panel
# T3 sequence (Q16816 whole entry): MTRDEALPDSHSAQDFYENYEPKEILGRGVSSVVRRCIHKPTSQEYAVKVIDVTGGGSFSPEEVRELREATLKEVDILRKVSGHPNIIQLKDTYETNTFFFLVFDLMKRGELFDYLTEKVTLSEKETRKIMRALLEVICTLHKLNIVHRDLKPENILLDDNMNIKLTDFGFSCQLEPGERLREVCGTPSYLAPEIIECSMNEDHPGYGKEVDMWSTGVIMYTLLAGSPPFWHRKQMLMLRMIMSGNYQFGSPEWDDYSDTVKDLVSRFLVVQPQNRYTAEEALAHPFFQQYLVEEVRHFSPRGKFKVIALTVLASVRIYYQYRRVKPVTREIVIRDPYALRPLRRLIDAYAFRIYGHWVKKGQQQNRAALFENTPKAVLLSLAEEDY
# Method in brief: as §1
# [4] = target: T4, kinases of the scanMAX Kinase assay panel (Homo sapiens, UniProt P42681); conditions: kinase TXK; 1 uM in DMSO
# T4 construct: purchased DiscoverX Co. (contract measurement) scanMAX Kinase assay panel
# T4 sequence (P42681 1-527): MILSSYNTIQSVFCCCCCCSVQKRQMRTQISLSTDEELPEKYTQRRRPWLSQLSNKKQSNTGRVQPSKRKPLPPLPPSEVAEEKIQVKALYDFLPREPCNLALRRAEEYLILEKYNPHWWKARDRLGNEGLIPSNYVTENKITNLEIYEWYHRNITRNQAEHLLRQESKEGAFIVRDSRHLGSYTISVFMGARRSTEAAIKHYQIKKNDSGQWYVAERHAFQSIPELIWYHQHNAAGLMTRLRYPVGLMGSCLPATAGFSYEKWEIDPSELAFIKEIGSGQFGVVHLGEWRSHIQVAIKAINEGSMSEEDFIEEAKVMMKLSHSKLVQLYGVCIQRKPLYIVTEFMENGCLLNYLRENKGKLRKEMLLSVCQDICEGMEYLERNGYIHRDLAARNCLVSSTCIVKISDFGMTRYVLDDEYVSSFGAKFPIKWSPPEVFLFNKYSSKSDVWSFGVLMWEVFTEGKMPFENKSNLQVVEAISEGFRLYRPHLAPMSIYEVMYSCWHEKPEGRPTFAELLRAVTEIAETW
# Method in brief: as §1
# [5] = target: T5, kinases of the scanMAX Kinase assay panel (Homo sapiens, UniProt Q13237); conditions: PRKG2; 1 uM
# T5 construct: purchased DiscoverX Co. (contract measurement) scanMAX Kinase assay panel
# T5 sequence (Q13237 1-762): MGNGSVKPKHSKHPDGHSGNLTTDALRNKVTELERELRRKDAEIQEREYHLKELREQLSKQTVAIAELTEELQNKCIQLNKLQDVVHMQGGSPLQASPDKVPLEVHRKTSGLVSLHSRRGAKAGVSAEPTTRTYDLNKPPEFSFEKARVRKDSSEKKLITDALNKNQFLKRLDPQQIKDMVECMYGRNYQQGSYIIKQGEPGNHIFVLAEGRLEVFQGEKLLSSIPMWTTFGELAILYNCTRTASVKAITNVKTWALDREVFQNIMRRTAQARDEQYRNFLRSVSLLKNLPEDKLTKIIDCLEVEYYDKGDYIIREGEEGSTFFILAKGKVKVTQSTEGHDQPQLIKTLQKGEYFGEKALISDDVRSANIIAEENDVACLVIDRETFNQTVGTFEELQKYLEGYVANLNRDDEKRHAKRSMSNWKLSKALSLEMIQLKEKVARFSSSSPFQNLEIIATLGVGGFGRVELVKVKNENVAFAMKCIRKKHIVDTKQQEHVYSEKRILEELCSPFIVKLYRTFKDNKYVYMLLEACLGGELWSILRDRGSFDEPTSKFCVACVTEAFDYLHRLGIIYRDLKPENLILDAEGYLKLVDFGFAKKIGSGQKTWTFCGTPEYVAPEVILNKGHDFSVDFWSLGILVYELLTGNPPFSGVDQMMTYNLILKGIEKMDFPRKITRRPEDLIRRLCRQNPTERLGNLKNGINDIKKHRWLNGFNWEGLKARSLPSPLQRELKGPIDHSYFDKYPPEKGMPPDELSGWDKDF
# Method in brief: as §1
# [6] = target: T6, kinases of the scanMAX Kinase assay panel (Homo sapiens, UniProt P07949); conditions: kinase RET; 1 uM in DMSO
# T6 construct: purchased DiscoverX Co. (contract measurement) scanMAX Kinase assay panel
# T6 sequence (P07949 29-1114): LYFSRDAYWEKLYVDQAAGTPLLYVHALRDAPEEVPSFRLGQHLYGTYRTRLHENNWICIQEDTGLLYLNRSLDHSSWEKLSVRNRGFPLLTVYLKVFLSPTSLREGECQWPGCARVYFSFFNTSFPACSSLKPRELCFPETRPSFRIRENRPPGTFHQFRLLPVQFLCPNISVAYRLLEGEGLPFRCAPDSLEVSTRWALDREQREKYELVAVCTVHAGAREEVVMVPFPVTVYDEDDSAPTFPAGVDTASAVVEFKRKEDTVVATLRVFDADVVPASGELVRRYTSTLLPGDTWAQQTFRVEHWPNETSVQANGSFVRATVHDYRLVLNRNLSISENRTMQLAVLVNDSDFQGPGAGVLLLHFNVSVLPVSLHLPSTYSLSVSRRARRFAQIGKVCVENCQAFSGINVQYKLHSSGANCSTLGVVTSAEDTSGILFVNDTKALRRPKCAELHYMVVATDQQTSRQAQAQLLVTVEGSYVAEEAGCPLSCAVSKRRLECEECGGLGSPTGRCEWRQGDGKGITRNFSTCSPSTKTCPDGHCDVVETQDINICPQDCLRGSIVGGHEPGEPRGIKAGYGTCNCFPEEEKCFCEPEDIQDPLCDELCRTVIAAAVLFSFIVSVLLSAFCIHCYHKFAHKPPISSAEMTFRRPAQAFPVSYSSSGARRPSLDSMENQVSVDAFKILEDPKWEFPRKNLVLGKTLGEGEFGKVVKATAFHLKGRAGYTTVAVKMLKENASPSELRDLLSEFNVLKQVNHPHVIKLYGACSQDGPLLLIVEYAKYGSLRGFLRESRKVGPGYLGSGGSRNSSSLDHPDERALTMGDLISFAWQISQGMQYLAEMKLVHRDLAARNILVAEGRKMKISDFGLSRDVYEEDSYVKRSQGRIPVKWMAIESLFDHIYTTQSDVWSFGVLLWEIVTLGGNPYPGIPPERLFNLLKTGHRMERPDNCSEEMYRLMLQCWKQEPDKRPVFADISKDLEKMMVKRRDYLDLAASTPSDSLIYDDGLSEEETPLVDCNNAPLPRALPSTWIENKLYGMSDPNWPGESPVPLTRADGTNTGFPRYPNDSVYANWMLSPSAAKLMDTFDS
# Method in brief: as §1
compound,measurement,setting,value
"CNc1nc(Nc2ccc(C(=O)N3CCOCC3)cc2OC)nc2[nH]cc(C#N)c12 [Example 1, 2-((2-methoxy-4-(morpholine-4-carbonyl)phenyl)amino)-4-(methylamino)-7H-pyrrolo[2,3-d]pyrimidine-5-carbonitrile]",remaining binding at 1 µM,[1],81%
same,remaining binding at 1 µM,[2],83%
same,remaining binding at 1 µM,[3],13%
same,remaining binding at 1 µM,[4],100%
same,remaining binding at 1 µM,[5],100%
same,remaining binding at 1 µM,[6],97%
"CC1(Nc2nc(Nc3cnn([C@H]4CCN(C5COC5)C[C@@H]4F)c3Cl)nc3[nH]cc(C#N)c23)CC1 [Example 52, 2-((5-chloro-1-((3S,4S)-3-fluoro-1-(oxetane-3-yl)piperidine-4-yl)-1H-pyrazole-4-yl)amino)((1-methylcyclopropyl)amino)-7H-pyrrolo[2,3-d]pyrimidine-5-carbonitrile]",remaining binding at 1 µM,[1],8.6%
same,remaining binding at 1 µM,[2],100%
same,remaining binding at 1 µM,[3],11%
same,remaining binding at 1 µM,[4],40%
same,remaining binding at 1 µM,[5],94%
same,remaining binding at 1 µM,[6],0%
"CCNc1nc(Nc2ccc(C(=O)N3CCC(N4CCOCC4)CC3)cc2OC)nc2[nH]cc(C(F)(F)F)c12 [Example 104, (4-((4-(ethylamino)-5-(trifluoromethyl)-7H-pyrrolo[2,3-d]pyrimidine-2-yl)amino)-3-methoxyphenyl)(4-morpholinopiperidine-1-yl)methanone]",remaining binding at 1 µM,[1],81%
same,remaining binding at 1 µM,[2],100%
same,remaining binding at 1 µM,[3],1%
same,remaining binding at 1 µM,[4],100%
same,remaining binding at 1 µM,[5],91%
same,remaining binding at 1 µM,[6],98%
